Data on one substance can be found in patent US20230111212A1, “MUSCLE TARGETING COMPLEXES AND USES THEREOF FOR TREATING DYSTROPHINOPATHIES” (Dyne Therapeutics, Inc., priority 2020, published 2023).

For data set [1], the system named is mdx mice (DMD mouse model). As to the kind of experiment: open field chamber experiment with hind limb fatigue challenge. In kind it is in vivo. Particulars: single i.v. dose 30 mg/kg, two weeks after injection. As for the experimental part: (§1) Each experimental condition was replicated in five mdx mice. Five wild-type mice (healthy mice) were also dosed with vehicle control (saline).
Two weeks after injection, the functional activity of all treated mice was determined using an open field chamber experiment. The experiment involved three consecutive stages: (1) a 10-minute period during which each mouse was placed into an open field chamber; (2) a 10-minute period during which each mouse was subjected to a hind limb fatigue challenge; and (3) a 10-minute period during which each mouse was placed into an open field chamber. The total horizontal distances traveled during stages (1) and (3) were collected. The percent change in the total distance traveled between the first and second tests.

For data set [2], the system named is mdx mice (DMD mouse model). The data set is described as follows: cage running wheel test. In kind it is in vivo. Particulars: single i.v. dose 30 mg/kg, four weeks after injection, 24-hour period. How it is done: as §1
Four weeks after injection, the activity of all treated mice was determined using a cage running wheel test. Each mouse was individually placed into cages with a running wheel for a 24-hour period. The 24-hour period involved five hours of light on followed by thirteen hours of darkness, and ending with six hours of light. The total distance traveled (in meters, m) by each mouse on the running wheel was continuously collected throughout the 24-hour period and subsequently binned into discrete one-hour increments.

A further data set deals with creatine kinase. As to the kind of experiment: creatine kinase activity levels in mdx mice. Type of data set: in vivo, mouse. As to conditions: single i.v. dose 30 mg/kg, two and four weeks after injection. As for the experimental part:
as §1
All mice in this Example were further tested for creatine kinase activity levels two weeks and four weeks after injection.

“MDX-ASO: naked exon 23 skipping PMO ASO; GGCCAAACCUCGGCUUACCUGAAAU (SEQ ID NO: 277) (PMO chemistry, chemistry not fully specified)”: in data set [1], the “average decrease of total horizontal distance traveled during stage (3) relative to stage (1)” value is reported as “about 85%” and the “functional performance in open field chamber experiment” value is “same compromised functional performance as those treated with vehicle”. Besides, the “distance traveled on running wheel during the dark period” value in data set [2] was “considerably shorter distances”. In addition, the “creatine kinase activity levels” value in the data set on creatine kinase is on record as “no significant benefit”.
